In US7996156B2, “Methods for predicting properties of molecules” (priority 2002, dated 2011):
Read-outs that look alike come from different tables or passages of the source.

Legend:
estrogen receptor = details: cited from earlier work
[1] = target: T1, aryl hydrocarbon receptor (AhR) (Rattus norvegicus, UniProt P41738); details: cited from earlier work; for Experimental Log EC50: rodent hepatic cytosol
T1 construct: rodent hepatic cytosol as a source of the AhR; from tissue; host or cells: rodent hepatic cytosol
T1 sequence (P41738 10-853): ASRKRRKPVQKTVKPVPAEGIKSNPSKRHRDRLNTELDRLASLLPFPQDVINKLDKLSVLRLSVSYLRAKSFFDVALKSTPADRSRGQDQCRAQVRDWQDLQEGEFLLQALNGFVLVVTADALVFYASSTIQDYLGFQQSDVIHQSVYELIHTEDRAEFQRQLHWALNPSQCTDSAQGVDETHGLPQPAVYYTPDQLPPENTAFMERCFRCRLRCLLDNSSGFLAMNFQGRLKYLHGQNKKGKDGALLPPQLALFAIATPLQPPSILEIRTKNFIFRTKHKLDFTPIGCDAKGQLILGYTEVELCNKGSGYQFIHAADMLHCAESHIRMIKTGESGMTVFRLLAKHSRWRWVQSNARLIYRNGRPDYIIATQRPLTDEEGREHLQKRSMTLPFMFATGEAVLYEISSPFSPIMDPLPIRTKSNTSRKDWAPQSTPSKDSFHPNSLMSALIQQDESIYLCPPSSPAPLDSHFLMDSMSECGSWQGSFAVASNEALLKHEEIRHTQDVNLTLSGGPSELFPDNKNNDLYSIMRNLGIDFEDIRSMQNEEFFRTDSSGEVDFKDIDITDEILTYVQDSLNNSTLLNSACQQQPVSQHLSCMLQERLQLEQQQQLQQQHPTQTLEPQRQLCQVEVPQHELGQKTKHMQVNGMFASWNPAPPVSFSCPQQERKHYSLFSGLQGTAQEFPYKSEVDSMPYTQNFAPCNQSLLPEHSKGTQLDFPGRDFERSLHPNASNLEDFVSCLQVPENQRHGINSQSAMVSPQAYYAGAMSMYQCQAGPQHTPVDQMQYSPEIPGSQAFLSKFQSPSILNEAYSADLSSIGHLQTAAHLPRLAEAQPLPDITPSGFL

[2] = Minimum inhibitory concentration of cephalosporin antibiotics; type: cell-based; parameters: unit not given here
From the text: This example describes the application of the disclosed CoSCoSA methods to model the minimum inhibitory concentration of cephalosporin antibotics, using only the through-bond (COSY-type) connections between carbons and between carbons and nitrogens in their structures. Bin sizes of 3 ppm by 3 ppm for carbon to carbon bins were used, and 10 ppm by 3 ppm for the nitrogen to carbon bins. […] The structures of the cephalosporins used in the model are shown below.

[3] = parameters: unit not given here; details: Minimal Inhibitory Concentration; cited from earlier work
[4] = experimental values of Waller et al. and Kuiper et al. external test sets, normalized to NCTR data
[5] = log scale, competitive binding, [3H]-2,3,7,8-tetrachlorodioxin, previously reported training data
[6] = previously reported competitive in vitro AhR binding, [3H]-2,3,7,8-tetrachlorodioxin radioligand, values are log EC50

Row | Compound | Normalized log (RBA) (estrogen receptor; [4]) | Experimental Log EC50 [1, 5] | Experimental Log EC50 [1, 6] | further results
1 | Clc1ccc(Cl)c(-c2cc(Cl)ccc2Cl)c1 [2,2′5,5′-tetraCl-biphenyl] | −2.67 |  |  | 
2 | Oc1c(Cl)cc(Cl)c(Cl)c1-c1cc(Cl)cc(Cl)c1Cl [2,2′,3,3′,5,5′-heaxCl-6′-biphenylol] | −2.69 |  |  | 
3 | Oc1cc(Cl)c(-c2c(Cl)ccc(Cl)c2Cl)c(Cl)c1Cl [2,2′,3,3′,6,6′-hexaCl-4-biphenylol] | −2.74 |  |  | 
4 | Oc1cc(Cl)c(-c2c(Cl)cc(Cl)cc2Cl)c(Cl)c1Cl [2,2′,3,4′,6,6′-hexaCl-4-biphenylol] | −2.60 |  |  | 
5 | Oc1cc(Cl)c(-c2c(Cl)cccc2Cl)c(Cl)c1Cl [2,2′,3,6,6′-pentaCl-4-biphenylol] | −1.97 |  |  | 
6 | Clc1cc(Cl)c(-c2cc(Cl)c(Cl)cc2Cl)cc1Cl [2,2′,4,4′,5,5′-hexaCl-biphenyl] | −2.83 | −5.10 | −5.10 | 
7 | Clc1cc(Cl)c(-c2c(Cl)cc(Cl)cc2Cl)c(Cl)c1 [2,2′,4,4′,6,6′-hexaCl-biphenyl] | −1.87 |  |  | 
8 | Clc1ccc(-c2ccc(Cl)c(Cl)c2Cl)cc1Cl [2,3,3′,4,4′-pentaCl-biphenyl] |  | −6.15 | −6.15 | 
9 | Clc1ccc(-c2cc(Cl)c(Cl)c(Cl)c2Cl)cc1 [2,3,4,4′,5-pentaCl-biphenyl] |  | −6.38 | −6.38 | 
10 | Clc1ccc(-c2ccc(Cl)c(Cl)c2Cl)cc1 [2,3,4,4′-tetraCl-biphenyl] |  | −5.55 | −5.55 | 
11 | Clc1cc(-c2ccccc2)c(Cl)c(Cl)c1Cl [2,3,4,5-tetraCl-biphenyl] |  | −4.85 | −4.85 | 
12 | Clc1cc2c(oc3c(Cl)c(Cl)c(Cl)cc32)c(Cl)c1Cl [2,3,4,6,7,8-hexaCl-dibenzofuran] |  | −8.33 | −8.33 | 
13 | Clc1cc2c(oc3c(Cl)cccc32)c(Cl)c1Cl [2,3,4,6-tetraCl-dibenzofuran] |  | −7.46 | −7.46 | 
14 | Clc1cc2oc3c(Cl)c(Cl)c(Cl)cc3c2cc1Cl [2,3,4,7,8-pentaCl-dibenzofuran] |  | −8.82 | −8.82 | 
15 | Clc1cc(Cl)c2c(c1)oc1c(Cl)c(Cl)c(Cl)cc12 [2,3,4,7,9-pentaCl-dibenzofuran] |  | −7.70 | −7.70 | 
16 | Oc1ccc(-c2c(Cl)c(Cl)c(O)c(Cl)c2Cl)cc1 [2,3,5,6,tetraCl-4,4′-biphenyldiol] | −2.18 |  |  | 
17 | Clc1cc2c(cc1Cl)Oc1c(ccc(Cl)c1Cl)O2 [2,3,6,7-tetraCl-dibenzodioxin] |  | −7.79 | −7.79 | 
18 | Clc1cc(Cl)c2oc3cc(Cl)c(Cl)cc3c2c1 [2,3,6,8-tetraCldibenzofuran] |  | −7.66 | −7.66 | 
19 | Clc1cc2c(cc1Cl)Oc1c(Cl)cccc1O2 [2,3,6-triCl-dibenzodioxin] |  | −7.66 | −7.66 | 
20 | Clc1cc2c(cc1Cl)Oc1cc(Cl)c(Cl)cc1O2 [2,3,7,8-tetraCl-dibenzodioxin] |  | −9.00 | −9.00 | binding to the AhR (in words) [1]: strong binder
21 | Clc1cc2oc3cc(Cl)c(Cl)cc3c2cc1Cl [2,3,7,8-tetraCl-dibenzofuran] |  | −8.60 | −8.60 | binding to the AhR (in words) [1]: strong binder
22 | Clc1ccc2c(c1)Oc1cc(Cl)c(Cl)cc1O2 [2,3,7-triCl-dibenzodioxin] |  | −8.15 | −8.15 | 
23 | Clc1cc(Cl)c(-c2cc(Cl)c(Cl)c(Cl)c2)cc1Cl [2,3′,4,4′,5,5′-hexaCl-biphenyl] |  | −5.80 | −5.80 | 

Row | Compound | Normalized log (RBA) (estrogen receptor; [4]) | Experimental Log EC50 [1, 5] | Experimental Log EC50 [1, 6] | further results
24 | Clc1ccc(-c2cc(Cl)c(Cl)cc2Cl)cc1Cl [2,3′,4,4′,5-pentaCl-biphenyl] |  | −6.04 | −6.04 | 
25 | Oc1ccc(-c2c(Cl)cc(Cl)cc2Cl)cc1 [2,4,6,-triCl-4′-biphenylol] | −0.16 |  |  | 
26 | Oc1ccc(-c2c(Cl)cccc2Cl)cc1 [2,6-dichloro-4′-biphenylol] | −1.11 |  |  | 
27 | Clc1ccc2c(c1)Oc1cc(Cl)ccc1O2 [2,8-diCl-dibenzodioxin] |  | −6.49 | −6.49 | 
28 | Oc1ccc(-c2ccc(O)cc2Cl)cc1 [2-Cl-4,4′-biphenyldiol] | −0.61 |  |  | 
29 | Clc1ccc(-c2ccc(Cl)c(Cl)c2Cl)cc1Cl [2′,3′4,4′,5-pentaCl-biphenyl] |  | −5.85 | −5.85 | 
30 | Clc1ccc(-c2cc(Cl)c(Cl)c(Cl)c2)cc1Cl [3,3′,4,4′,5-pentaCl-biphenyl] |  | −7.92 | −7.92 | 
31 | Clc1ccc(-c2ccc(Cl)c(Cl)c2)cc1Cl [3,3′,4,4′-tetraCl-biphenyl] |  | −7.37 | −7.37 | 
32 | CC(C)(C)c1cccc(O)c1 [3-tert-butylphenol] | −4.82 |  |  | 
33 | C[C@]12CC[C@H]3[C@@H](CC=C4C[C@@H](O)CC[C@@]43C)[C@@H]1CC[C@@H]2O [5-Androstenediol] |  |  |  | Normalized log (RBA) (estrogen receptor): −0.49
34 | C[C@]12CC[C@@H]3c4ccc(O)cc4CC[C@H]3[C@@H]1CC(=O)[C@@H]2O [16-ketoestradiol] |  |  |  | Normalized log (RBA) (estrogen receptor): −0.38
35 | CC12CCC3c4ccc(O)cc4CCC3C1CC(Br)C2O (stereo not shown) [16a-bromoestradiol] | 1.41 |  |  | 
36 | N[C@@H](C(=O)N[C@@H]1C(=O)N2C(C(=O)O)=C(Cl)CS[C@H]12)c1ccccc1 [Cefaclor] |  |  |  | Log(1/MIC) [2]: −.90; MIC [3]: 8
37 | CCN1CCN(C(=O)N[C@@H](C(=O)N[C@@H]2C(=O)N3C(C(=O)O)=C(CSc4nnnn4C)CS[C@H]23)c2ccc(O)cc2)C(=O)C1=O [Cefaperazone] |  |  |  | Log(1/MIC) [2]: −1.20; MIC [3]: 16
38 | C=CC1=C(C(=O)O)N2C(=O)[C@@H](NC(=O)/C(=N\OCC(=O)O)c3csc(N)n3)[C@H]2SC1 [Cefixime] |  |  |  | Log(1/MIC) [2]: −.90
39 | CO[C@@]1(NC(=O)C2SC(=C(C(N)=O)C(=O)O)S2)C(=O)N2C(C(=O)O)=C(CSc3nnnn3C)CS[C@@H]21 (stereo partly shown) [Cefotetan] |  |  |  | Log(1/MIC) [2]: −1.20
40 | COCC1=C(C(=O)O)N2C(=O)[C@@H](NC(=O)/C(=N\OC)c3csc(N)n3)[C@H]2SC1 [Cefpodoxime] |  |  |  | Log(1/MIC) [2]: −.30
41 | CCC1=C(c2ccc(O)cc2)[C@H](C)c2cc(O)ccc21 [Indenestrol A (R)] | 1.08 |  |  | 
42 | CCC1=C(c2ccc(O)cc2)[C@@H](C)c2cc(O)ccc21 [Indenestrol A (S)] | 2.39 |  |  | 
43 | CCC(=O)[C@@]1(C)CC[C@H]2[C@@H]3CCC4=CC(=O)CCC4=C3CC[C@@]21C [R 5020] | −1.81 |  |  | 
44 | O=C(c1ccc(OCCN2CCCCC2)cc1)c1c(-c2ccc(O)cc2)sc2cc(O)ccc12 [Raloxifene] | 1.34 |  |  | 
45 | C[C@H]1CCCC(=O)CCC/C=C/c2cc(O)cc(O)c2C(=O)O1 [Zearalenone] | 0.91 |  |  | 
46 | Clc1c(Cl)c(Cl)c2c(c1Cl)Oc1c(Cl)c(Cl)c(Cl)c(Cl)c1O2 [octaCl-dibenzodioxin] |  | −6.00 | −6.00 | 
